From PubChem BioAssay (NCI)
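Growth conditions: 96-well plates. Treatment: test compound, 48 hours, 5 concentrations. Analysis: linear interpolation between bracketing concentrations; unreached endpoints set to highest concentration. GI50 is the concentration that inhibits growth by half. At the TGI there is no net growth.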

What was measured:
Assay in all cases: NCI tumour cell line growth inhibition, 48 h
786-0 renal = system: 786-0 renal
A498 renal = system: A498 renal
A549 NSCLC = system: A549 NSCLC
ACHN renal = system: ACHN renal
BT-549 breast = system: BT-549 breast
CAKI-1 renal = system: CAKI-1 renal
CCRF-CEM leukemia = system: CCRF-CEM leukemia
COLO 205 colon = system: COLO 205 colon
DU-145 prostate = system: DU-145 prostate
EKVX NSCLC = system: EKVX NSCLC
HCC-2998 colon = system: HCC-2998 colon
HCT-116 colon = system: HCT-116 colon
HCT-15 colon = system: HCT-15 colon
HL-60(TB) leukemia = system: HL-60(TB) leukemia
HOP-62 NSCLC = system: HOP-62 NSCLC
HOP-92 NSCLC = system: HOP-92 NSCLC
HS 578T breast = system: HS 578T breast
HT29 colon = system: HT29 colon
IGROV1 ovarian = system: IGROV1 ovarian
K-562 leukemia = system: K-562 leukemia
KM12 colon = system: KM12 colon
LOX IMVI melanoma = system: LOX IMVI melanoma
M14 melanoma = system: M14 melanoma
MALME-3M melanoma = system: MALME-3M melanoma
MCF7 breast = system: MCF7 breast
MDA-MB-231 breast = system: MDA-MB-231 breast
MDA-MB-435 = system: MDA-MB-435
MOLT-4 leukemia = system: MOLT-4 leukemia
NCI-H226 lung = system: NCI-H226 lung
NCI-H23 lung = system: NCI-H23 lung
NCI-H460 lung = system: NCI-H460 lung
NCI-H522 lung = system: NCI-H522 lung
NCI/ADR-RES ovarian = system: NCI/ADR-RES ovarian
OVCAR-3 ovarian = system: OVCAR-3 ovarian
OVCAR-4 ovarian = system: OVCAR-4 ovarian
OVCAR-5 ovarian = system: OVCAR-5 ovarian
OVCAR-8 ovarian = system: OVCAR-8 ovarian
PC-3 prostate = system: PC-3 prostate
RPMI-8226 leukemia = system: RPMI-8226 leukemia
RXF 393 renal = system: RXF 393 renal
SF-268 CNS = system: SF-268 CNS
SF-295 CNS = system: SF-295 CNS
SF-539 CNS = system: SF-539 CNS
SK-MEL-2 melanoma = system: SK-MEL-2 melanoma
SK-MEL-28 melanoma = system: SK-MEL-28 melanoma
SK-MEL-5 melanoma = system: SK-MEL-5 melanoma
SK-OV-3 ovarian = system: SK-OV-3 ovarian
SN12C renal = system: SN12C renal
SNB-19 CNS = system: SNB-19 CNS
SNB-75 CNS = system: SNB-75 CNS
SR leukemia = system: SR leukemia
SW-620 colon = system: SW-620 colon
T-47D breast = system: T-47D breast
TK-10 renal = system: TK-10 renal
U251 CNS = system: U251 CNS
UACC-257 melanoma = system: UACC-257 melanoma
UACC-62 melanoma = system: UACC-62 melanoma
UO-31 renal = system: UO-31 renal
MDA-N = system: MDA-N

What does the source list for `CCCN(CCC)C(=O)C1=Cc2ccc(-c3ccc(C(=O)N4CCCC4)cc3)cc2N=C(N)C1`?
GI50 (786-0 renal): 14.7 µM; TGI (786-0 renal): 42.3 µM; GI50 (A498 renal): 9.01 µM; TGI (A498 renal): 71.1 µM; GI50 (A549 NSCLC): 7.69 µM; TGI (A549 NSCLC): 35.3 µM; GI50 (ACHN renal): 8.13 µM; TGI (ACHN renal): 50.9 µM; GI50 (BT-549 breast): 12.8 µM; TGI (BT-549 breast): 33.3 µM; GI50 (CAKI-1 renal): 7.66 µM; TGI (CAKI-1 renal): 40.3 µM; GI50 (CCRF-CEM leukemia): 10.6 µM; TGI (CCRF-CEM leukemia): 74.4 µM; GI50 (COLO 205 colon): 4.26 µM; TGI (COLO 205 colon): 16.3 µM; GI50 (DU-145 prostate): 20.6 µM; TGI (DU-145 prostate): 91.1 µM; GI50 (EKVX NSCLC): 11.8 µM; TGI (EKVX NSCLC): 57.1 µM; GI50 (HCC-2998 colon): 14.4 µM; TGI (HCC-2998 colon): 35.8 µM; GI50 (HCT-116 colon): 4.55 µM; TGI (HCT-116 colon): 19.2 µM; GI50 (HCT-15 colon): 4.8 µM; TGI (HCT-15 colon): 23.1 µM; GI50 (HL-60(TB) leukemia): 3.46 µM; TGI (HL-60(TB) leukemia): 15.6 µM; GI50 (HOP-62 NSCLC): 12.6 µM; TGI (HOP-62 NSCLC): 65.4 µM; GI50 (HOP-92 NSCLC): 7.99 µM; TGI (HOP-92 NSCLC): 54.3 µM; GI50 (HS 578T breast): 16 µM; TGI (HS 578T breast): 59 µM; GI50 (HT29 colon): 4.28 µM; TGI (HT29 colon): 28.6 µM; GI50 (IGROV1 ovarian): 14.4 µM; TGI (IGROV1 ovarian): 54.8 µM; GI50 (K-562 leukemia): 4.45 µM; TGI (K-562 leukemia): 26.9 µM; GI50 (KM12 colon): 5.01 µM; TGI (KM12 colon): 21.4 µM; GI50 (LOX IMVI melanoma): 9.48 µM; TGI (LOX IMVI melanoma): 24.2 µM; GI50 (M14 melanoma): 5.66 µM; TGI (M14 melanoma): 22.7 µM; GI50 (MALME-3M melanoma): 8.32 µM; TGI (MALME-3M melanoma): 23 µM; GI50 (MCF7 breast): 3.32 µM; TGI (MCF7 breast): 15.3 µM; GI50 (MDA-MB-231 breast): 13.2 µM; TGI (MDA-MB-231 breast): 77 µM; GI50 (MDA-MB-435): 2510 nM; TGI (MDA-MB-435): 7.58 µM; GI50 (MOLT-4 leukemia): 10.5 µM; TGI (MOLT-4 leukemia): 64.3 µM; GI50 (NCI-H226 lung): 12.1 µM; TGI (NCI-H226 lung): 62 µM; GI50 (NCI-H23 lung): 8.92 µM; TGI (NCI-H23 lung): 38.9 µM; GI50 (NCI-H460 lung): 4.46 µM; TGI (NCI-H460 lung): 17.4 µM; GI50 (NCI-H522 lung): 4.68 µM; TGI (NCI-H522 lung): 18.8 µM; GI50 (NCI/ADR-RES ovarian): 19.4 µM; TGI (NCI/ADR-RES ovarian): 62.2 µM; GI50 (OVCAR-3 ovarian): 8.19 µM; TGI (OVCAR-3 ovarian): 26.2 µM; GI50 (OVCAR-4 ovarian): 9.45 µM; TGI (OVCAR-4 ovarian): 69.5 µM; GI50 (OVCAR-5 ovarian): 20.1 µM; TGI (OVCAR-5 ovarian): 64.9 µM; GI50 (OVCAR-8 ovarian): 16.1 µM; TGI (OVCAR-8 ovarian): 68.5 µM; GI50 (PC-3 prostate): 8.56 µM; TGI (PC-3 prostate): > 95.4 µM; GI50 (RPMI-8226 leukemia): 7.66 µM; TGI (RPMI-8226 leukemia): 36.4 µM; GI50 (RXF 393 renal): 5.13 µM; TGI (RXF 393 renal): 19.3 µM; GI50 (SF-268 CNS): 15.5 µM; TGI (SF-268 CNS): 46 µM; GI50 (SF-295 CNS): 4.92 µM; TGI (SF-295 CNS): 24.5 µM; GI50 (SF-539 CNS): 11.7 µM; TGI (SF-539 CNS): 27 µM; GI50 (SK-MEL-2 melanoma): 10.6 µM; TGI (SK-MEL-2 melanoma): 26.2 µM; GI50 (SK-MEL-28 melanoma): 8.91 µM; TGI (SK-MEL-28 melanoma): 24.8 µM; GI50 (SK-MEL-5 melanoma): 2910 nM; TGI (SK-MEL-5 melanoma): 10.9 µM; GI50 (SK-OV-3 ovarian): 18.2 µM; TGI (SK-OV-3 ovarian): 87 µM; GI50 (SN12C renal): 18.4 µM; TGI (SN12C renal): 60 µM; GI50 (SNB-19 CNS): 18.8 µM; TGI (SNB-19 CNS): > 100 µM; GI50 (SNB-75 CNS): 3.8 µM; TGI (SNB-75 CNS): 30.6 µM; GI50 (SR leukemia): 4.21 µM; TGI (SR leukemia): 18.3 µM; GI50 (SW-620 colon): 7.1 µM; TGI (SW-620 colon): 31.8 µM; GI50 (T-47D breast): 3.56 µM; TGI (T-47D breast): 26.8 µM; GI50 (TK-10 renal): 19.6 µM; TGI (TK-10 renal): 70.1 µM; GI50 (U251 CNS): 7.69 µM; TGI (U251 CNS): 24.6 µM; GI50 (UACC-257 melanoma): 9.03 µM; TGI (UACC-257 melanoma): 22.3 µM; GI50 (UACC-62 melanoma): 9.17 µM; TGI (UACC-62 melanoma): 26.4 µM; GI50 (UO-31 renal): 9.15 µM; TGI (UO-31 renal): 32.8 µM

`CC1CN=C(Nc2ccc(F)cc2F)S1` (configuration not stated) was tested. Which TGI (786-0 renal) did it give?
The TGI was over 100 µM.

What about the TGI (A498 renal) of the same compound?
The TGI was over 100 µM.

What about the TGI (A549 NSCLC) of the same compound?
Its TGI is over 100 µM.

And the TGI (ACHN renal)?
Its TGI is over 100 µM.

What about the TGI (CAKI-1 renal) of the same compound?
Its TGI is over 100 µM.

And the TGI (CCRF-CEM leukemia)?
The TGI was over 100 µM.

And the TGI (COLO 205 colon)?
Its TGI is over 100 µM.

What about the TGI (DU-145 prostate) of the same compound?
Its TGI is over 100 µM.

And the TGI (EKVX NSCLC)?
Its TGI is over 100 µM.

And the TGI (HCC-2998 colon)?
The TGI was over 100 µM.

And the TGI (HCT-116 colon)?
The TGI was over 100 µM.

What about the TGI (HCT-15 colon) of the same compound?
The TGI was over 100 µM.

And the TGI (HL-60(TB) leukemia)?
The TGI was over 100 µM.

What about the TGI (HOP-62 NSCLC) of the same compound?
The TGI was over 100 µM.

What about the TGI (HOP-92 NSCLC) of the same compound?
Its TGI is over 100 µM.

What about the TGI (HS 578T breast) of the same compound?
The TGI was over 100 µM.

What about the TGI (IGROV1 ovarian) of the same compound?
The TGI was over 100 µM.

And the TGI (K-562 leukemia)?
Its TGI is over 100 µM.

What about the TGI (KM12 colon) of the same compound?
Its TGI is over 100 µM.

What about the TGI (LOX IMVI melanoma) of the same compound?
Its TGI is over 100 µM.

And the TGI (MALME-3M melanoma)?
The TGI was over 100 µM.

What about the TGI (MCF7 breast) of the same compound?
The TGI was over 100 µM.

What about the TGI (MDA-MB-231 breast) of the same compound?
The TGI was over 100 µM.

And the TGI (MDA-N)?
The TGI was over 100 µM.

What about the TGI (MOLT-4 leukemia) of the same compound?
Its TGI is over 100 µM.

And the TGI (NCI-H23 lung)?
Its TGI is over 100 µM.

And the TGI (NCI-H460 lung)?
Its TGI is over 100 µM.

And the TGI (NCI/ADR-RES ovarian)?
Its TGI is over 100 µM.

And the TGI (OVCAR-3 ovarian)?
Its TGI is over 100 µM.

And the TGI (OVCAR-4 ovarian)?
The TGI was over 100 µM.

What about the TGI (OVCAR-5 ovarian) of the same compound?
The TGI was over 100 µM.

What about the TGI (OVCAR-8 ovarian) of the same compound?
The TGI was over 100 µM.

And the TGI (PC-3 prostate)?
The TGI was over 100 µM.

And the TGI (RPMI-8226 leukemia)?
Its TGI is over 100 µM.

And the TGI (SF-268 CNS)?
Its TGI is over 100 µM.

What about the TGI (SF-295 CNS) of the same compound?
The TGI was over 100 µM.

And the TGI (SF-539 CNS)?
Its TGI is over 100 µM.

And the TGI (SK-MEL-2 melanoma)?
The TGI was over 100 µM.

And the TGI (SK-MEL-28 melanoma)?
The TGI was over 100 µM.

What about the TGI (SK-MEL-5 melanoma) of the same compound?
Its TGI is over 100 µM.

What about the TGI (SK-OV-3 ovarian) of the same compound?
The TGI was over 100 µM.

What about the TGI (SN12C renal) of the same compound?
The TGI was over 100 µM.

What about the TGI (SNB-19 CNS) of the same compound?
Its TGI is over 100 µM.

And the TGI (SNB-75 CNS)?
The TGI was over 100 µM.

What about the TGI (SR leukemia) of the same compound?
Its TGI is over 100 µM.

And the TGI (SW-620 colon)?
Its TGI is over 100 µM.

What about the TGI (T-47D breast) of the same compound?
Its TGI is over 100 µM.

What about the TGI (TK-10 renal) of the same compound?
The TGI was over 100 µM.

And the TGI (U251 CNS)?
The TGI was over 100 µM.

And the TGI (UACC-257 melanoma)?
The TGI was over 100 µM.

What about the TGI (UO-31 renal) of the same compound?
Its TGI is over 100 µM.
